From patent US10251949B2, “Stabilized HIV-1 peptide constructs comprising the gp120 C5 domain and gp41 hydrophilic domain” (Bionor Immuno AS, priority 2009, dated 2019)
Bridge positions count the residues as written; N and C are the ends. Ends that are not written are not given here. I, II: the chains in the order shown.

Tests used:
[1] = system: sera from rabbits immunized with BI400-B binding to C5/gp41 (015/201); test: Competitive ELISA for rabbit sera after immunization with BI400-B; details: for inhibition of antibody binding to C5/gp41 (015/201): antigen 10-1000 μM preincubated with rabbit serum 4° C. overnight, FIG. 3
Protocol: 50-100 μl of a mixture of BI400-015 and -201 (pre-incubated in Coating buffer—0.05M Na2CO3 pH9.6; denoted CB—in cold at 16 μg/ml for each peptide 1-3 days prior to coating) or just CB (background control) was used for coating wells in microtiter plates at 4° C. overnight. Plates were then washed 3× with washing buffer (PBS+1% v/v Triton-X100; denoted WB), followed by 2 h blocking at room temperature (RT) with 200 μl/well of blocking buffer (PBS+1% w/v BSA). Plates were then washed 3× with WB, followed by 1 h incubation at 37° C. with 60-100 μl/well of added rabbit serum samples (diluted 1:10-1:250 final concentration) preincubated together (4° C. overnight) with serial dilutions (ranging from 10-1000 μM final concentration) of 400-SEQ.B, BI400-015, BI400-201, BI400-204d, recombinant gp41 (Shin-Won Scientific, SWO 102 gp41), BI301-23 (irrelevant protein; control), no peptide (i.e. PBS; control), LTNP-sera pools (diluted 1:10 final concentration), or Blood donor sera-pools (diluted 1:10 final concentration; control). Plates were then washed 6× with WB, followed by 1 h incubation at RT with 70 μl/well of Alkaline Phosphatase-conjugated Goat-anti-Rabbit-Ig (6 μg/ml; Dako D0487). Plates were then washed 6× with WB, followed by 10-60 min incubation at RT with 100 μl/well of 0.3% w/v of Phenoftalein monophosphate (Sigma P-5758). Plates were finally quenched by adding 100 μl/well of Quench solution (0.1M TRIS+0.1M EDTA+0.5M NaOH+0.01% w/v NaN3; pH14), followed by ELISA reader (ASYS UVM 340) at 550 nm.

individual human sera = test: ELISA plate seroreactivity of individual human sera (LTNP, HIV chronically infected, blood donors); assay type: binding; details: FIG. 2, OD
Protocol: Seroreactivities of individual LTNP patient sera to SEQ ID NO: 47 (16 μg) alone and in combination with SEQ ID NO: 6 (16 μg) were determined using an ELISA plate as a solid support. Sheep anti-C5 antibodies were used as a positive control. Optical density (OD) at […] was used as a read out following the enzymatic reaction from protein G coupled to alkaline phosphatase.

C5/gp41 (015/201) = test: Rabbit immunization with BI400-B vaccine, serum ELISA; assay type: in vivo; details: rabbits immunized intradermally weeks 0, 2 & 6, 500 μg in Freund's adjuvant; in the presence of PBS; FIG. 3
Protocol: New Zealand White female rabbits (n=3) were immunized intradermally at weeks 0, 2 & 6 with 1 ml of BI400-B vaccine consisting of 500 μg BI400-B in 50% V/V Freund's adjuvant (i.e. Complete Freund's adjuvant used for priming, followed by boostings with Incomplete Freund's adjuvant). Individual blood serum was isolated for ELISA.
50-100 μl of a mixture of BI400-015 and -201 (pre-incubated in Coating buffer—0.05M Na2CO3 pH9.6; denoted CB—in cold at 16 μg/ml for each peptide 1-3 days prior to coating) or just CB (background control) was used for coating wells in microtiter plates at 4° C. overnight. Plates were then washed 3× with washing buffer (PBS+1% v/v Triton-X100; denoted WB), followed by 2 h blocking at room temperature (RT) with 200 μl/well of blocking buffer (PBS+1% w/v BSA). […] Plates were finally quenched by adding 100 μl/well of Quench solution (0.1M TRIS+0.1M EDTA+0.5M NaOH+0.01% w/v NaN3; pH14), followed by ELISA reader (ASYS UVM 340) at 550 nm.

## 201: gp41 peptide (DRPEGIEEEGGERDR) [compound 201]
[1]
  inhibition of antibody binding to C5/gp41 (015/201): could be inhibited

## APTKAKRRVVQREKR (Artificial sequene) [SEQ ID NO: 47]
Individual human sera; individual sera
  magnitude of response among LTNP patients compared to patients chronically infected with HIV: greater response
Individual human sera; negative control sera
  responses in blood donors: consistently low

## BI400-B: SEQ ID NO: 38 and SEQ ID NO: 39 linked via Cys and Lys residues; vaccine antigen (chain 1 GAKRRVVGGCGGAKRRVVQREKRAGEREKRA; chain 2 GKGGIEEEGGRDRDRGGEQDRDR; bridge I:10-II:2 (inferred))
[1]; LTNP-sera pools diluted 1:10, FIG. 4
  cross competition of anti-C5/gp41 rabbit sera by LTNP-sera pools: competitively inhibited
[1]
  inhibition of antibody binding to C5/gp41 (015/201): could be inhibited
C5/gp41 (015/201)
  binding of sera from immunized rabbits to C5/gp41 peptides: bound to peptides corresponding to C5/gp41 (015/201)

## GGAIVNGSLADDDIVI [204d, peptide derived from C2]
[1]
  inhibition of antibody binding to C5/gp41 (015/201): could be inhibited
